The values below come from patent US9945845B2, “Methods of screening using amphibians” (priority 2009, dated 2018).

Structures are written as SMILES. Entries after “also recorded” stand apart in the source; their conditions may differ. Counter-ions that a name gives are not always drawn. Like-named read-outs stand apart in the source and are kept apart here.

Data set [1] concerns LEC. Nature of the data set: cells. Type of data set: cell-based, human. Conditions: for activity at 1 µM: Homo sapiens. The gist of the method:
(§1)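 HUVEC and LEC in EBM with 20% FBS, hydrocortisone and dibutyryl-cAMP, up to eleven passages, treated overnight at 37 °C with compound at 1 μM in 0.1% DMSO, then fixed in 4% paraformaldehyde. Read-out: total tube length (μm) per area over three hotspot images per well, triplicate wells.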

The subject of data set [2] is blood vessel development and/or lymphangiogenesis in Xenopus embryos. It is filed as in vivo, Xenopus laevis. Conditions: for lymph vessel development phenotype (vegfr3 expression, in words): 20 μM from stage 31, fixed at stage 42; for ALH phenotype: anterior lymph heart; for ALS phenotype: anterior lymph sac; for PLV phenotype: posterior lymph vessels. The gist of the method: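 Albino Xenopus embryos treated at 20 μM final (from 10-mM DMSO stocks) in screening medium, 7 per well, from stage 31 (37 hpf) to stage 35/36 (50 hpf) or 42 (80 hpf). Fixed in 4% paraformaldehyde and scored by whole-mount in situ hybridization: vasculogenesis and intersomitic vein angiogenesis at stage 35/36, lymph vessel development at stage 42.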

A further data set has as its system Xenopus embryos. The note with it: for Lethality: — = no stage of lethality given; for Onset (NF): onset of edema; for scored in the phenotypic Xenopus screens: known antiangiogenic compounds; for Type of edema Periocular: * = causing bulging eyes, # = bilateral, causing narrow-set eyes; for Type of edema Ventral: ‡ = edemas also detected in the gut. In outline:
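Stage 31 (37 hpf) Xenopus embryos, five per well, exposed to 20 µM compound in 1% DMSO at 23 °C for 4 days. Edema, lethality and other external phenotypes were scored daily by two investigators at stages 39, 41, 45 and 47.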

Data set [3] deals with LEC. Nature of the data set: LEC cell proliferation assay. It is filed as cell-based, human. Conditions: for activity at 10 µM: Homo sapiens, 48 h. The gist of the method: (§2)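 HUVEC and LEC in EBM with 20% FBS, hydrocortisone and dibutyryl-cAMP were treated with compound at 10 μM in 0.1% DMSO for 48 hours. Viable cells read by fluorescence, in five replicates.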
Data set [4] concerns HUVEC. Nature of the data set: HUVEC cell proliferation assay. Conditions: for activity at 10 µM: Homo sapiens, HUVEC, 48 h. Type of data set: cell-based, human. The gist of the method:
as §2

The test system of data set [5] is HUVEC. Briefly: HUVEC tube formation assay. It is filed as cell-based, human. Conditions: for activity at 1 µM: Homo sapiens, HUVEC. In outline: as §1
In data set [6] the test system is transgenic zebrafish expressing a fluorescent vascular reporter gene. The note with it: Tran et al., 2007, cited from earlier work; for penetration of embryos: highly hydrophilic compounds.
Setting [7] is: intersomitic vessels, Xenopus embryos.
[8] abbreviates: posterior cardinal vein, Xenopus embryos.
Setting [9] is: vitelline vein network, Xenopus embryos.
Setting [10] is: compounds causing edema, 20 μM, 1% DMSO, treatment from stage 31, scored to stage 47.
[11] abbreviates: 20 μM, 1% DMSO, treatment from stage 31, Nieuwkoop & Faber stage.
Where [12] appears, read: 1 μM in 0.1% DMSO, overnight, read-out: LEC tube formation.
Where [13] appears, read: 10 μM in 0.1% DMSO, 48 hours, read-out: LEC proliferation.
[14] abbreviates: 10 μM in 0.1% DMSO, 48 hours, read-out: HUVEC proliferation.
[15] abbreviates: 1 μM in 0.1% DMSO, overnight, read-out: HUVEC tube formation.

`COc1cc([C@@H]2c3cc4c(cc3[C@H](O)[C@H]3COC(=O)[C@H]23)OCO4)cc(OC)c1OC` [Podophyllotoxin]: the activity at 1 µM is less than 50% in the data set with LEC [1] (read-out: LEC tube formation), less than 35% in the data set with LEC [1] (read-out: LEC tube formation (tube length)), less than 50% in the data set on HUVEC [5] (read-out: HUVEC tube formation) and less than 35% in the data set on HUVEC [5] (read-out: HUVEC tube formation (tube length)). In addition, in data set [2] (setting [7]), the ISV phenotype entry is reported as “impaired”. Besides, the PCV phenotype entry in data set [2] (setting [8]) was “hypoplastic”. Besides, the VVN phenotype entry in data set [2] (setting [9]) was “hypoplastic”. Moreover, in the data set on Xenopus embryos (setting [10]), the “Lethality (NF)” value is given as 41/42. In the data set on Xenopus embryos (embryonic stage), the “Type of edema Pericordial” value is listed as 39/40. Besides, the Lethality in the data set on Xenopus embryos (embryonic stage) was 41/42. Moreover, in the data set with Xenopus embryos (setting [11]), the “Onset (NF)” value was 39/40. For the same compound, the activity at 10 µM was in the range of 65 to 82% with LEC [3] (read-out: LEC proliferation, 10 μM in 0.1% DMSO, 48 hours) and 65 to 82% in the data set on HUVEC [4] (read-out: HUVEC proliferation, 10 μM in 0.1% DMSO, 48 hours).

For `CN(C)c1ccc(C=C2C(=O)Nc3ccccc32)cc1` [SU 4312, 3-(4-Dimethylaminobenzylidenyl)-2-indolinone], in the data set with LEC [1] (1 μM in 0.1% DMSO, overnight), the LEC tube formation entry was “O (O, inactive or marginal effects (85-115% of control);)”. The “blood vessel development phenotype (apj expression, in words)” value in data set [2] (20 μM from stage 31, fixed at stage 35/36) is “largely unaffected; also recorded: normal angiogenic ISV outgrowth”. Besides, the “lymph vessel development phenotype (vegfr3 expression, in words)” value in data set [2] was “inhibiting preferentially lymphatic vascular development; also recorded: lymphangiogenesis was largely suppressed; also recorded: robustly blocks lymphangiogenesis”. Further, in data set [2] (Xenopus embryos), the Blood vessel phenotype result was “normal”, the ALH phenotype result is “impaired”, the ALS phenotype result is reported as “impaired” and the PLV phenotype result is recorded as “hypoplastic”. Further, the “scored in the phenotypic Xenopus screens” value in the data set on Xenopus embryos (20 μM) is “active”. Besides, the Embr. phen. entry with Xenopus embryos (embryonic phenotype in the primary screen) was “EDE”. In the data set with Xenopus embryos (embryonic stage), the “Type of edema Pronephric” value is 45 embryonic stages according to Nieuwkoop and Faber (NF); the “Type of edema Periocular” value is 45 embryonic stages according to Nieuwkoop and Faber (NF); the “Type of edema Ventral” value was 45 embryonic stages according to Nieuwkoop and Faber (NF). For the same compound, the “Onset (NF)” value with Xenopus embryos (setting [11]) came out at 45 NF. Further, in the data set with LEC [3] (10 μM in 0.1% DMSO, 48 hours), the LEC proliferation entry was “O (O, inactive or marginal effects (85-115% of control);)”. Moreover, the “recovery as antiangiogenic compound in the transgenic zebrafish screen” value in data set [6] is reported as “recovery”. Further, the “antiangiogenic effects in zebrafish” value in data set [6] (at higher concentrations (>30 μM)) is on record as “moderate antiangiogenic effects”. In addition, the HUVEC tube formation result in the data set with HUVEC [5] (1 μM in 0.1% DMSO, overnight) was “O (O, inactive or marginal effects (85-115% of control);)”.

In the case of `Cc1cc(C)c(C=C2C(=O)Nc3ccccc32)[nH]1` [SU 5416, 1,3-Dihydro-3-[(3,5-dimethyl-1H-pyrrol-2-yl)methylene]-2H-indol-2-one], the “effect on LEC tube formation (in words)” value in the data set on LEC [1] (1 μM in 0.1% DMSO) is recorded as “preferentially blocked tube formation in LEC rather than HUVEC cultures”. For the same compound, the activity at 1 µM in the data set on LEC [1] (setting [12]) was 50 to 85%. For the same compound, in data set [2] (in vivo), the ISV phenotype result is “impaired”; the PCV phenotype result is “normal”; the VVN phenotype result is given as “hypoplastic”; the “blood vessel development phenotype (apj expression, in words)” value is on record as “block ISV outgrowth”. Also, the “edema or other phenotype in compound-treated Xenopus embryos/tadpoles (in words)” value in the data set on Xenopus embryos (20 μM, 1% DMSO, treatment from stage 31) is recorded as “causing lethality”. Further, the “scored in the phenotypic Xenopus screens” value in the data set with Xenopus embryos (20 μM) is “active”. For the same compound, the “Lethality (NF)” value in the data set with Xenopus embryos (compounds causing lethality, 20 μM, 1% DMSO, treatment from stage 31, Nieuwkoop & Faber stage) is recorded as 37/38. Besides, the activity at 10 µM in the data set with LEC [3] (setting [13]) lay within 85 to 115%. In addition, the activity at 10 µM in the data set on HUVEC [4] (setting [14]) fell in the range of 85 to 115%. Also, the activity at 1 µM in the data set on HUVEC [5] (setting [15]) fell in the range of 85 to 115%.

Regarding `CC(C)COC(=O)OCN1C(=O)CN(CCN2CC(=O)N(COC(=O)OCC(C)C)C(=O)C2)CC1=O` [Sobuzoxane, 4,4′-(1,2-Ethanediyl)bis(1-isobutoxycarbonyloxymethyl-2,6-piperazinedione)], the activity at 1 µM in the data set on LEC [1] (setting [12]) was in the range of 85 to 115%. In addition, in the data set with LEC [1] (1 μM in 0.1% DMSO, read-out: LEC tube formation (tube length)), the activity at 1 µM was 85 to 115%. Further, the “lymph vessel development phenotype (vegfr3 expression, in words)” value in data set [2] is on record as “discontinuatous, dysplastic lymphatic vessels”. Moreover, in data set [2] (Xenopus embryos), the Blood vessel phenotype result was “normal”, the ALH phenotype entry is “dysplastic”, the ALS phenotype result was “dysplastic” and the PLV phenotype result was “hypoplastic”. The “Lethality (NF)” value in the data set with Xenopus embryos (setting [10]) turned out to be 47 NF. In the data set on Xenopus embryos (embryonic stage), the “Type of edema Proctodeal” value is 45 embryonic stages according to Nieuwkoop and Faber (NF); the “Type of edema Pronephric” value is 41/42; the “Type of edema Periocular” value was 45* embryonic stages according to Nieuwkoop and Faber (NF); the Lethality is 47 embryonic stages according to Nieuwkoop and Faber (NF). For the same compound, the “Type of edema Ventral” value in the data set with Xenopus embryos (embryonic stage) is 45 embryonic stages according to Nieuwkoop and Faber (NF). Further, the “Onset (NF)” value in the data set on Xenopus embryos (setting [11]) is recorded as 41/42. Besides, the LEC proliferation entry with LEC [3] (10 μM in 0.1% DMSO, 48 hours) is “+ (+, moderate promotion (>115-150% of control).)”. Besides, the activity at 10 µM in the data set on LEC [3] (setting [13]) was in the range of 115 to 150%. Besides, the HUVEC proliferation result in the data set with HUVEC [4] (10 μM in 0.1% DMSO, 48 hours) is recorded as “+ (+, moderate promotion (>115-150% of control).)”. Moreover, the activity at 10 µM in the data set on HUVEC [4] (setting [14]) was 115 to 150%. For the same compound, in the data set on HUVEC [5] (setting [15]), the activity at 1 µM lay within 85 to 115%. Besides, the activity at 1 µM in the data set with HUVEC [5] (1 μM in 0.1% DMSO, read-out: HUVEC tube formation (tube length)) lay within 85 to 115%.

Turning to `N#CC(=Cc1ccc(O)c(O)c1)C(=O)Nc1ccccc1` [Tyrphostin AG 494, N-Phenyl-3,4-dihydroxybenzylidenecyanoacetamide], the “effect on LEC tube formation (in words)” value in the data set on LEC [1] (1 μM in 0.1% DMSO) is on record as “preferentially blocked tube formation in LEC rather than HUVEC cultures”. Further, the activity at 1 µM in the data set on LEC [1] (setting [12]) was 50 to 85%; in the data set on HUVEC [5] (setting [15]), 85 to 115%. In addition, in data set [2] (setting [7]), the ISV phenotype result is “impaired”. Moreover, the PCV phenotype entry in data set [2] (setting [8]) is “hypoplastic”. Also, the VVN phenotype entry in data set [2] (setting [9]) is given as “hypoplastic”. Moreover, the “Lethality (NF)” value in the data set on Xenopus embryos (setting [10]) came out at 40 NF. Moreover, the “Type of edema Pericordial” value in the data set with Xenopus embryos (embryonic stage) was 39 embryonic stages according to Nieuwkoop and Faber (NF). In the data set with Xenopus embryos (embryonic stage), the Lethality is 40 embryonic stages according to Nieuwkoop and Faber (NF). Besides, the activity at 10 µM with LEC [3] (setting [13]) and in the data set with HUVEC [4] (setting [14]) was 85 to 115% throughout.

Consider `COc1cc2ncnc(Nc3cccc(Cl)c3)c2cc1OC` [Tyrphostin AG 1478, N-(3-Chlorophenyl)-6,7-dimethoxy-4-quinazolinamine], for which the “scored in the phenotypic Xenopus screens” value in the data set with Xenopus embryos (20 μM) was “active”. For the same compound, the “Lethality (NF)” value in the data set on Xenopus embryos (setting [10]) is on record as 46 NF. For the same compound, in the data set on Xenopus embryos (embryonic stage), the “Type of edema Periocular” value is 45 embryonic stages according to Nieuwkoop and Faber (NF); the Lethality was 46 embryonic stages according to Nieuwkoop and Faber (NF); the “Type of edema Ventral” value is 45 embryonic stages according to Nieuwkoop and Faber (NF). Also, the Cardiac phenotype in the data set on Xenopus embryos (embryonic stage, ¶ = the heart chambers were enlarged) was 45¶ embryonic stages according to Nieuwkoop and Faber (NF). Also, in data set [6], the “recovery as antiangiogenic compound in the transgenic zebrafish screen” value is “recovery”.

Consider `CN(C)c1ccc(O)c2c1C[C@H]1C[C@H]3[C@H](N(C)C)C(O)=C(C(N)=O)C(=O)[C@@]3(O)C(O)=C1C2=O` [minocycline hydrochloride], for which the penetration of embryos result in data set [6] was “poorly penetrate embryos”.

With `O=C1CCC(N2C(=O)c3ccccc3C2=O)C(=O)N1` (stereo not shown) [thalidomide], in data set [6], the penetration of embryos result was “poorly penetrate embryos”.
